# Laboratory results reported in patent publication US20220249599A1, “TREATMENT OF IMPLANTS WITH ENGINEERED ANTIMICROBIAL AMPHIPHILIC PEPTIDES” (priority 2018, published 2022).
# Ends that are not written are not given here.
# Experiments:
# Type in all cases: cell-based
# [1] = test system: Acinetobacter baumannii ATCC BAA-1797 (MDR); assay: microbe, parasite or virus in culture; conditions: ATCC BAA-1797
# Summary of the method: (§1)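 CLSI broth microdilution; MHB II + 0.002% P80; 2-fold peptide series, top 32 mcg/mL final; 35° C., 16–20 hrs; MIC = lowest conc. with no visible growth. Peptides in PBS; SEQ ID NO:5 and 8 from DMSO stocks, 2.5% DMSO at first dilution.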
# [2] = test system: Enterococcus faecium ATCC 51559 (VRE); conditions: ATCC 51559
# Summary of the method: as §1
# [3] = test system: Enterococcus faecalis ATCC 700802 (V583 VRE); conditions: ATCC 700802
# Summary of the method: as §1
# [4] = test system: Klebsiella pneumoniae ATCC BAA-1705 (KPC); conditions: ATCC BAA-1705
# Summary of the method: as §1
# [5] = test system: Escherichia coli ATCC 35218 (ESBL); conditions: ATCC 35218
# Summary of the method: as §1
# [6] = test system: Streptococcus pneumoniae ATCC 49619 (QC); conditions: ATCC 49619
# Summary of the method: as §1
# [7] = test system: Acinetobacter baumannii ATCC 19606 (non-MDR); conditions: Acinetobacter baumannii ATCC 19606 (non-MDR)
# Summary of the method: as §1
# [8] = test system: Streptococcus pyogenes ATCC 49399; conditions: ATCC 49399
# Summary of the method: as §1
# [9] = test system: Pseudomonas aeruginosa ATCC 27853 (non-MDR; QC); conditions: ATCC 27853
# Summary of the method: as §1
# [10] = test system: Staphylococcus aureus ATCC 43300 (MRSA); conditions: ATCC 43300
# Summary of the method: as §1
# [11] = test system: Staphylococcus aureus ATCC 29213 (MSSA; QC); conditions: ATCC 29213
# Summary of the method: as §1
# [12] = test system: Escherichia coli ATCC 25922 (QC); conditions: ATCC 25922
# Summary of the method: as §1
# [13] = test system: Pseudomonas aeruginosa ATCC BAA-2109 (MDR); conditions: ATCC BAA-2109
# Summary of the method: as §1
# [14] = test system: Streptococcus agalactiae ATCC 13813
# Summary of the method: as §1
# [15] = test system: Enterococcus faecalis ATCC 29212 (VSE; QC); conditions: ATCC 29212
# Summary of the method: as §1
# [16] = test system: Escherichia coli ATCC BAA-2471 (NDM-1); conditions: ATCC BAA-2471
# Summary of the method: as §1
# [17] = test system: Staphylococcus aureus NRS382 (USA100; HA-MRSA); conditions: USA100
# Summary of the method: as §1
substance,measurement,setting,value
RRWVRRVRRVWRRVVRVVRRWVRR-NH2 (C-terminus assumed) [SEQ ID NO: 1],MIC,[1],4 µg/mL
same,MIC,[2],2 µg/mL
same,MIC,[3],4 µg/mL
same,MIC,[4],8 µg/mL
same,MIC,[5],8 µg/mL
same,MIC,[6],16 µg/mL
same,MIC,[7],2 µg/mL
same,MIC,[8],8 µg/mL
same,MIC,[9],8 µg/mL
same,MIC,[10],4 µg/mL
same,MIC,[11],8 µg/mL
same,MIC,[12],4 µg/mL
same,MIC,[13],4 µg/mL
same,MIC,[14],8 µg/mL
same,MIC,[15],8 µg/mL
same,MIC,[16],2 µg/mL
same,MIC,[17],4 µg/mL
